# Values of other authors in patent US6676951B1, “Host-guest processes and formulations for delivering bio-affecting compounds” (priority 1999, dated 2004).
# Details: C=O bond external to the ring
compound,measurement,value
"O=C1O[C@H]([C@@H](O)CO)C(O)=C1O [ascorbic acid, L-ascorbic acid]",pKa of the C=O external to the ring structure,4.5
